According to patent US6245765A, “Mesylate dihydrate salts of 5-(2-(4-(1,2-benzisothiazol-3-yl)-1-piperazinyl)-ethyl)-6-chloro-1,3-dihyd ro-2(1H)-indol-2-one (=ziprasidone), its preparation and its use as dopamine D2 antagonist” (Pfizer Inc, priority 1999, dated 2001):
Counter-ions that a name gives are not always drawn.

Assays:
[1] = Aqueous solubility (solubility in water); format: physicochemical
[2] = as stated in U.S. Pat. No. 5,312,925; cited from earlier work

SMILES	SOLUBILITY IN WATER ([1]; aqueous solubility of ziprasidone mesylate polymorphs, water) [mg/mL]	aqueous solubility (in words) ([1]; qualitative statement, dihydrates compared with ziprasidone hydrochloride monohydrate)	hygroscopic stability (in words) [2]
O=C1Cc2cc(CCN3CCN(c4nsc5ccccc45)CC3)c(Cl)cc2N1 [dihydrate (needle), 5-[2-[4-(1,2-benzisothiazol-3-yl)-1-piperazinyl]ethyl]-6-chloro-1,3-dihydro-2H-indol-2-one Methanesulfonate Dihydrate (Needle Crystals)]	1.10		
O=C1Cc2cc(CCN3CCN(c4nsc5ccccc45)CC3)c(Cl)cc2N1 [ziprasidone hydrochloride monohydrate]		low aqueous solubility	substantially hygroscopically stable
